According to US20130225641A1, “ANTICANCER COMPOUNDS AND PREPARATION METHODS THEREOF” (priority 2010, published 2013):

Experiments:
Raf protein kinase = assay: Inhibition of Raf protein kinase activity (phosphorylated MEK, western blotting) in MDA-MB-321 cells; assay type: cell-based, human; settings: 1 hour treatment, phosphorylated MEK level, read-out: median inhibitory concentration (IC50) for inhibiting the activity of Raf protein kinase
Source text: Raf is a proto-oncogenic product, and activation of Raf is regulated with stimulation from extracellular cell growth factors. Once activated, Raf can activate MEK through phosphorylation, and further transmits an activation signal to ERK, thereby promoting the growth of tumor cells. In this test, the level of phosphorylated MEK in cells is indicative of the activity of Raf protein kinase in cells. MDA-MB-321 is a human derived breast cancer cell line, which is rich in Raf protein. We used MDA-MB-321 cells to detect whether ZTP and ZTQ can inhibit the activity of Raf protein kinase. MDA-MB-321 cells were subjected to adherent growth in the RPMI 1640 medium (GIBCO-BRL) containing 10% bovine calf serum at 37° C. in 5% CO2. The cells were treated with various concentrations of ZTP and ZTQ (0, 10 ng/ml, 100 ng/ml, 500 ng/ml, 1 μg/ml, and 10 μg/ml), and the cell proteins were collected 1 hour after treatment. The protein content was determined through Bradford method, and then the level of phosphorylated MEK was assayed through western blotting. Immunoblotting experiment: denatured polyacrylamide gel was used for separation of the proteins with a sample load of 60 μg of total proteins. The proteins were electro-transferred onto a PVDF membrane and blocked. […] The membrane was exposed to an X-ray film, and the results were analyzed by a gel imaging system. […]

Widr = assay: MTT cytotoxicity, Widr; assay type: cell-based; settings: Homo sapiens, Colonic, 72 hrs, read-out: LC50 (the source's name)
Procedure: (§1) The cytotoxicity of ZTP and ZTQ was analyzed by using human tumor cell lines. Human tumor cell lines were purchased from ATCC and NCI, and cultured in DMEM medium containing 10% FBS at 37° C. in 5% CO2 in an incubator. The cells grown to confluence were used for cytotoxicity analysis. The cells were digested with trypsin, washed with the culture medium, and then counted. 33 tumor cell lines were cultured. The cells were seeded at a density of 3000-6000 cells/well in a 96-well plate and incubated for 16-24 hrs. Then, various concentrations of ZTP or ZTQ dissolved in DMSO were added, and cultured for 72 hrs. The drug-treated cells and control cells were analyzed by MTT.

AU-565 = assay: MTT cytotoxicity, AU-565; assay type: cell-based; settings: Homo sapiens, AU565, AU-565, Breast, 72 hrs, read-out: LC50 (the source's name)
Procedure: as §1

SGC-7901 = assay: MTT cytotoxicity, SGC-7901; assay type: cell-based; settings: Homo sapiens, SGC-7901, Gastric, 72 hrs, read-out: LC50 (the source's name)
Procedure: as §1

[1] = system: human liver cancer cells (HepG3B); assay: Transplantation model of human liver cancer (HepG3B) in nude mice; assay type: in vivo, nude mice (nu/nu); settings: HepG3B subcutaneous in nude mice; oral daily 5 days/week, 3 weeks; ZTP 30 mg/kg, ZTQ 60 mg/kg; lower = stronger
Procedure: T-cell deficient nude mice (nu/nu) of 6 weeks old were purchased from Charles River Laboratory, and housed and treated in a sterile environment following Institutional Animal Care & Use Committee Program. 48 mice were respectively subcutaneously inoculated on ribbed belly with 5×10^6 human liver cancer cells (HepG3B), human lung caner cells (NCI-H23), and human colon cancer cells (HCT-116) suspended in 0.2 ml HBSS/matrigel (50:50, V/V). When the tumor grew to have an average diameter of 7-8 mm and a volume of about 100-200 mm^3, 24 mice were picked up, and assigned to treatment groups (16 animals/2 groups), and a control group (8 animals). The 2 treatment groups were administered with the compounds ZTP and ZTQ dissolved in 15% Captsol respectively at a dose of 30 mg/kg and 60 mg/kg, and the control group only received an excipient (15% Captsol).
The same number of mice of each type was assigned to the control group and the treatment groups with the compounds ZTP and ZTQ respectively.
The dose schedule of the test compounds in the tumor transplanted nude mice was as follows: the compounds ZTP and ZTQ dissolved in 15% Captsol were daily orally administered as a 200 μl solution containing 0.75 mg of ZTP and 1.5 mg of ZTQ for 5 days/week over 3 consecutive weeks, followed by one-week break; and the control group was only administered with 200 μl of the placebo (15% Captsol) for 3 weeks, followed by 1 week of break. The two groups of animals were housed separately, and allowed to free access to food.
Evaluation of antitumor effect: the tumor size was measured every 3 or 4 days. The tumor volume was calculated using the equation below: […], in which a denotes the width (the shorter diameter), and b denotes the length (the longer diameter). Relative tumor volume (RTV) of each tumor refers to the ratio of the volume at a specified time to that at the beginning of the treatment. The average RTV for each treatment group was calculated. The antitumor activity was determined by calculating the tumor growth inhibition using a formula below. […]

| SMILES | IC50 (Raf protein kinase) [nM] | CC50 (Widr) [nM] | CC50 (AU-565) [nM] | CC50 (SGC-7901) [nM] | TGI (T/C×100) [1] [%] |
| --- | --- | --- | --- | --- | --- |
| CNC(=O)c1cc(Oc2ccc(NC(=S)Nc3ccc(Cl)c(C(F)(F)F)c3)cc2)ccn1 [ZTP, N-[4-chloro-3-(trifluoromethyl)phenyl]-[4-(N-methyl-formamide)(4-pyridyloxy)phenyl]-thiourea] | 45 | 950 | 1890 | 1310 | 13 |
| CNC(=O)c1cc(Sc2ccc(NC(=S)Nc3ccc(Cl)c(C(F)(F)F)c3)cc2)ccn1 [ZTQ, N-[4-chloro-3-(trifluoromethyl)phenyl]-[4-(N-methyl-formamide)(4-pyridylthio)phenyl]-thiourea] | 20 | 810 | 1370 | 1030 | 1.75 |
